How the values were obtained:
P2Y12 [1] = target: T1, P2Y12 (Homo sapiens, UniProt Q9H244); assay: GTP shift experiments (radioligand binding in presence and absence of GTP); parameters: Membranes were prepared from human outdated platelets from the blood bank; from tissue; host or cells: human platelets (University of Bonn blood bank), membrane preparation; conditions: presence and absence of GTP (100 μM); no shift = antagonist rather than agonist
Description: (§1) Radioligand binding assays were performed using 5 nM [^3H]PSB-0413 and 100 μg of protein in Tris-HCl buffer 50 mM, pH 7.4, as previously described. (El-Tayeb, A., Griessmeier, K. J, Müller, C. E. Bioorg. Med. Chem. Lett. 2005, 15, 5450-52; Atzler, K. Doctoral Thesis, University of Bonn, 2006). Competition by 10 μM of test compound was initially determined. The mixture was incubated for 1 h at rt followed by filtration through GF/B filters. Nonspecific binding was determined with 1 mM ADP or 250 μM RB 2. […] At least three independent experiments were performed each in triplicate.
Selected compounds were investigated for their functionality in GTP shift experiments. Radioligand binding studies as described above were performed in the presence and absence of GTP (100 μM).
Target sequence in this assay (Q9H244 whole entry): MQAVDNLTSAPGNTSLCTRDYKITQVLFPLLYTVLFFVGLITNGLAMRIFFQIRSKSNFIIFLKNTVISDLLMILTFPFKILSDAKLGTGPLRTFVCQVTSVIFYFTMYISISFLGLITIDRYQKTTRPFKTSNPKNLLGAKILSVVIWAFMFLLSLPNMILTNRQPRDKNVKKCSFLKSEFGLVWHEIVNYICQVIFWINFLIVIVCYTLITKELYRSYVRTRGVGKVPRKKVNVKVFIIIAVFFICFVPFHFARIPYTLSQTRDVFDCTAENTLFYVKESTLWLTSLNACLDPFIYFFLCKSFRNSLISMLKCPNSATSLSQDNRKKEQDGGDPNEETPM

[2] = target: T2, human platelet P2Y12 receptors (Homo sapiens, UniProt Q9H244); assay: Radioligand binding assay with [3H]PSB-0413 at human platelet membranes; conditions: human platelet membranes, 5 nM [3H]PSB-0413, 1 h at rt; mean ± SEM; read-out: hP2Y12 Receptor Ki [μM ± SEM] vs. [3H]PSB-0413
T2 construct: Membranes were prepared from human outdated platelets from the blood bank; from tissue; host or cells: human platelets (University of Bonn blood bank), membrane preparation
T2 sequence (Q9H244 whole entry): as above
Description: Membranes were prepared from human outdated platelets from the blood bank. Outdated human platelets were obtained from the University of Bonn blood bank 4-5 days after donation. Platelet rich plasma was washed by centrifugation (10 min at 1000 g) in a buffer consisting of 50 mM Tris-HCl, pH 7.4, 5 mM EDTA and 150 mM NaCl. The supernatant was centrifuged twice (48400 g for 60 min) and the resultant platelet pellet were resuspended in 5 mM Tris-HCl (pH 7.4) containing 5 mM EDTA. The platelets were homogenized by a homogenizer. The final suspension was stored frozen as multiple aliquots at −80° C. until needed. Protein concentrations were determined by the method of Lowry using a Sigma Chemie protein assay kit.
as §1
(§2) The data were analyzed using GraphPad Prism 4.0 (GraphPad Software, Inc., San Diego, Calif.).

rP2Y6 Receptor = rP2Y6 Receptor (Rattus norvegicus, UniProt Q63371); assay: Inhibition of agonist-induced calcium mobilization, recombinant receptor in human astrocytoma cells; type: cell-based; conditions: mean ± SEM
Sequence of rP2Y6 Receptor (Q63371 whole entry): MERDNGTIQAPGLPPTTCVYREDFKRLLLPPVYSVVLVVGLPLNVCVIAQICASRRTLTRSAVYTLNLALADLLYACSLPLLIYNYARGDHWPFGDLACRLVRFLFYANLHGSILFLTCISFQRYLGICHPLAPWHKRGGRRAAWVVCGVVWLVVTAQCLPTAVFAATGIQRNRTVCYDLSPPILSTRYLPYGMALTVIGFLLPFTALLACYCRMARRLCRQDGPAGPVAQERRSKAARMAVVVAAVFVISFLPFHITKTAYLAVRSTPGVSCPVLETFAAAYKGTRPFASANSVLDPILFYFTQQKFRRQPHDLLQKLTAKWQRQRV
Description: (§3) Inhibition of agonist-induced calcium mobilization was determined as previously described (Kaulich M. et al, Drug Dev. Res. 2003, 59, 72-81) using NG108-15 cells for the mouse P2Y2 receptor, or human recombinant P2Y receptors stably expressed in human astrocytoma cells (El-Tayeb, A. et al., J. Med. Chem. 2006, 49, 7076-87).
as §2

hP2Y4 Receptor = hP2Y4 Receptor (Homo sapiens, UniProt P51582); assay: as above; type: cell-based; conditions: mean ± SEM
Sequence of hP2Y4 Receptor (P51582 whole entry): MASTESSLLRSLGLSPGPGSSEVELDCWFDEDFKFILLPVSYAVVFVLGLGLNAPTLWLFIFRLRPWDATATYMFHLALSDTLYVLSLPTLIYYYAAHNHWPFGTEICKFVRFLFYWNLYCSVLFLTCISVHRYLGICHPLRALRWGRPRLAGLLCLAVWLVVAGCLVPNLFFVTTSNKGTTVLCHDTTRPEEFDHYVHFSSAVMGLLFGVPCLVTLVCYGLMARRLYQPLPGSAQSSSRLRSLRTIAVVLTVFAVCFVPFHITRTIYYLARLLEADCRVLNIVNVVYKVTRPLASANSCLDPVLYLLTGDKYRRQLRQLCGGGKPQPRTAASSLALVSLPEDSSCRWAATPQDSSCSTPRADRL
Description: as §3, §2

mouse P2Y2 receptor = mouse P2Y2 receptor (Mus musculus, UniProt P35383); assay: Inhibition of agonist-induced calcium mobilization in NG108-15 cells; type: cell-based; conditions: mean ± SEM, read-out: mP2Y2 Receptor IC50 (μM ± SEM)
Sequence of mouse P2Y2 receptor (P35383 whole entry): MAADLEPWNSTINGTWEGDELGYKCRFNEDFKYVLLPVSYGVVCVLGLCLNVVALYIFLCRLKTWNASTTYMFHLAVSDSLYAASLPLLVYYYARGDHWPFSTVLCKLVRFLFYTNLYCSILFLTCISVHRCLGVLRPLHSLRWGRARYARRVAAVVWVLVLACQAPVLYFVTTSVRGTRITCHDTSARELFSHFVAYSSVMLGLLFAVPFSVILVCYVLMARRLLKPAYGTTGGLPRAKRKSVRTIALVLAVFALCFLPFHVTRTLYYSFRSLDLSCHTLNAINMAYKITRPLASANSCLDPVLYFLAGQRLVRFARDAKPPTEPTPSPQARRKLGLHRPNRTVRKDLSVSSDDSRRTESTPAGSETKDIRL
Description: as §3, §2

hP2Y2 Receptor = target: T3, hP2Y2 Receptor (Homo sapiens, UniProt P41231); assay: Inhibition of agonist-induced calcium mobilization, recombinant receptor in human astrocytoma cells; type: cell-based; conditions: mean ± SEM
T3 construct: expressed in transfected cells; host or cells: human astrocytoma cells
T3 sequence (P41231 whole entry): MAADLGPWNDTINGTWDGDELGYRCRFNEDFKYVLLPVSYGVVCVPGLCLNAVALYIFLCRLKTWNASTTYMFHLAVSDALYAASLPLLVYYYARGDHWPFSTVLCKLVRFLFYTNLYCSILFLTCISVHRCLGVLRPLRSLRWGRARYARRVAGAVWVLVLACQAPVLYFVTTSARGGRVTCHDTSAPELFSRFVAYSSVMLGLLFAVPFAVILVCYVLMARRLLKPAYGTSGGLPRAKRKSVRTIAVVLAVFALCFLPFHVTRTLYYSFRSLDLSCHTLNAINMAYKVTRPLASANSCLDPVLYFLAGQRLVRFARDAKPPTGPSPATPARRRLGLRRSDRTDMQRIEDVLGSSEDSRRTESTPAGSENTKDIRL
Description: as §3, §2

P2Y12 [3] = target: T1, P2Y12; conditions: recent review article (Abbracchio et al. 2006); read-out: Ki value as P2Y12 antagonist; cited from earlier work
Target sequence in this assay (Q9H244 whole entry, species assumed): as the sequence (Q9H244 whole entry) above

SMILES | melting point | Ki [2] | IC50 (rP2Y6 Receptor) | IC50 (hP2Y4 Receptor) | other results
Nc1ncnc2c1ncn2[C@@H]1O[C@H](COP(=O)(O)OP(=O)(O)O)[C@@H](O)[C@H]1O [ADP, reference compound] |  |  |  |  | right-shift of the concentration-inhibition curve in GTP shift experiments (P2Y12 [1]): significant right-shift
Nc1c(S(=O)(=O)O)cc(Nc2cccc(S(=O)(=O)O)c2)c2c1C(=O)c1ccccc1C2=O [Entry 1] |  | 3.81 ± 1.08 µM | ~100 µM | 18.5 ± 2.5 µM | 
Nc1ccc(Nc2cc(S(=O)(=O)O)c(N)c3c2C(=O)c2ccccc2C3=O)cc1S(=O)(=O)O [Entry 5] |  | 2.39 ± 0.65 µM | 24.3 ± 3.4 µM | 11 ± 3 µM | 
Nc1c(S(=O)(=O)O)cc(Nc2ccc(Cl)cc2)c2c1C(=O)c1ccccc1C2=O [Entry 15] |  | 7.35 ± 1.72 µM | > 10 µM | > 3 µM | IC50 (mouse P2Y2 receptor): 20 ± 7 µM; IC50 (hP2Y2 Receptor): 4.46 ± 0.75 µM
Nc1c(S(=O)(=O)O)cc(Nc2ccccc2)c2c1C(=O)c1ccccc1C2=O [Entry 17] |  | 9.83 ± 2.43 µM |  |  | IC50 (mouse P2Y2 receptor): 11.1 ± 3 µM; IC50 (hP2Y2 Receptor): 5.61 ± 0.47 µM
Nc1c(S(=O)(=O)O)cc(Nc2ccc(Nc3ccccc3)cc2)c2c1C(=O)c1ccccc1C2=O [Entry 18] |  | 1.85 ± 0.57 µM | > 1 µM | > 3 µM | IC50 (mouse P2Y2 receptor): 30 ± 7 µM
COc1ccc(CCNc2cc(S(=O)(=O)O)c(N)c3c2C(=O)c2ccccc2C3=O)cc1OC [Entry 21] |  |  | > 100 µM | > 30 µM | 
Nc1c(S(=O)(=O)O)cc(Nc2cccc3ccccc23)c2c1C(=O)c1ccccc1C2=O [Entry 25] |  |  | 26.7 µM | 10.1 ± 1.4 µM | IC50 (mouse P2Y2 receptor): 10.7 ± 1 µM; IC50 (hP2Y2 Receptor): 6.67 ± 0.32 µM
Nc1c(S(=O)(=O)O)cc(Nc2cccc(Cl)c2)c2c1C(=O)c1ccccc1C2=O [Entry 27] |  | 6.76 ± 2.07 µM | > 100 µM | > 3 µM | IC50 (hP2Y2 Receptor): 24.5 ± 10.4 µM
Nc1c(S(=O)(=O)O)cc(Nc2cccc([N+](=O)[O-])c2)c2c1C(=O)c1ccccc1C2=O [Entry 28] |  |  |  |  | IC50 (hP2Y2 Receptor): 7.52 ± 0.82 µM
Nc1c(S(=O)(=O)[O-])cc(Nc2ccc(Nc3ncccn3)c(S(=O)(=O)[O-])c2)c2c1C(=O)c1ccccc1C2=O.[Na+].[Na+] [Entry 33] |  | 0.0507 ± 0.016 µM | 28.6 ± 2.7 µM | 9.04 ± 1.2 µM | right-shift of the concentration-inhibition curve in GTP shift experiments (P2Y12 [1]): did not
COc1nc(Cl)nc(Nc2ccc(Nc3cc(S(=O)(=O)[O-])c(N)c4c3C(=O)c3ccccc3C4=O)cc2S(=O)(=O)[O-])n1.[Na+].[Na+] [Entry 37] |  | 0.66 ± 0.12 µM |  |  | right-shift of the concentration-inhibition curve in GTP shift experiments (P2Y12 [1]): did not
Nc1c(S(=O)(=O)[O-])cc(Nc2cccc(C(=O)O)c2)c2c1C(=O)c1ccccc1C2=O.[Na+] [Example 3, Sodium 1-amino-4-(3-carboxyphenylamino)-9,10-dioxo-9,10-dihydroanthracene 2-sulfonate] | > 300 °C |  |  |  | 
Nc1c(S(=O)(=O)[O-])cc(Nc2ccc(C(=O)O)cc2)c2c1C(=O)c1ccccc1C2=O.[Na+] [Example 4, Sodium 1-amino-4-(4-carboxyphenylamino)-9,10-dioxo-9,10-dihydroanthracene 2-sulfonate] | > 300 °C |  |  |  | 
Nc1c(S(=O)(=O)O)cc(Nc2ccc(Nc3nc(Cl)nc(Nc4cccc(S(=O)(=O)O)c4)n3)c(S(=O)(=O)O)c2)c2c1C(=O)c1ccccc1C2=O [Reactive Blue 2, reference compound] |  |  |  |  | Ki (P2Y12 [3]): 1.3 µM; right-shift of the concentration-inhibition curve in GTP shift experiments (P2Y12 [1]): did not

Continued, in another order:

melting point | SMILES | Ki [2] | IC50 (rP2Y6 Receptor) | IC50 (hP2Y4 Receptor) | other results
> 300 °C | Nc1ccccc1Nc1cc(S(=O)(=O)[O-])c(N)c2c1C(=O)c1ccccc1C2=O.[Na+] [Example 5, Sodium 1-amino-4-(2-aminophenylamino)-9,10-dioxo-9,10-dihydroanthracene 2-sulfonate] |  |  |  | 
> 300 °C | Nc1c(S(=O)(=O)[O-])cc(Nc2ccc(CC(=O)O)cc2)c2c1C(=O)c1ccccc1C2=O.[Na+] [Example 15, Sodium 1-amino-4-(4-carboxymethylphenylamino)-9,10-dioxo-9,10-dihydro-anthracene 2-sulfonate] |  |  |  | 
> 300 °C | COc1cccc(Nc2cc(S(=O)(=O)[O-])c(N)c3c2C(=O)c2ccccc2C3=O)c1.[Na+] [Example 18, Sodium 1-amino-4-(3-methoxyphenylamino)-9,10-dioxo-9,10-dihydroanthracene 2-sulfonate] |  |  |  | 
> 300 °C | COc1ccc(Nc2cc(S(=O)(=O)[O-])c(N)c3c2C(=O)c2ccccc2C3=O)cc1.[Na+] [Example 19, Sodium 1-amino-4-(4-methoxyphenylamino)-9,10-dioxo-9,10-dihydroanthracene 2-sulfonate] |  |  |  | 
> 300 °C | Nc1c(S(=O)(=O)[O-])cc(Nc2ccc(F)cc2)c2c1C(=O)c1ccccc1C2=O.[Na+] [Example 20, Sodium 1-amino-4-(4-fluorophenylamino)-9,10-dioxo-9,10-dihydroanthracene 2-sulfonate] |  |  |  | 
> 300 °C | Nc1c(S(=O)(=O)[O-])cc(Nc2cccc(Br)c2)c2c1C(=O)c1ccccc1C2=O.[Na+] [Example 21, Sodium 1-amino-4-(3-bromophenylamino)-9,10-dioxo-9,10-dihydroanthracene 2-sulfonate] |  |  |  | 
> 300 °C | Cc1cc(C)cc(Nc2cc(S(=O)(=O)[O-])c(N)c3c2C(=O)c2ccccc2C3=O)c1.[Na+] [Example 22, Sodium 1-amino-4-(3,5-dimethylphenylamino)-9,10-dioxo-9,10-dihydroanthracene 2-sulfonate] |  |  |  | 
> 300 °C | Cc1c(N)cccc1Nc1cc(S(=O)(=O)[O-])c(N)c2c1C(=O)c1ccccc1C2=O.[Na+] [Example 24, Sodium 1-amino-4-(3-amino-2-methylphenylamino)-9,10-dioxo-9,10-dihydroanthracene 2-sulfonate] |  |  |  | 
> 300 °C | Nc1c(S(=O)(=O)[O-])cc(Nc2ccc(O)c(C(=O)O)c2)c2c1C(=O)c1ccccc1C2=O.[Na+] [Example 25, Sodium 1-amino-4-(3-carboxy-4-hydroxyphenylamino)-9,10-dioxo-9,10-dihydroanthracene 2-sulfonate] |  |  |  | 
> 300 °C | Nc1c(S(=O)(=O)[O-])cc(Nc2ccccc2S(=O)(=O)[O-])c2c1C(=O)c1ccccc1C2=O.[Na+].[Na+] [Example 26, Disodium 1-amino-4-(2-sulfophenylamino)-9,10-dioxo-9,10-dihydroanthracene 2-sulfonate] |  |  |  | 

Source: patent publication US20100210654A1, “NOVEL P2Y12 RECEPTOR ANTAGONISTS” (RHEINISCHE FRIEDRICH-WILHELMS UNIVERSITÄT BONN, priority 2007, published 2010)
